The values that follow come from paper PMC10046377, “Inhibitors of the Oncogenic PA2G4-MYCN Protein-Protein Interface” (Cancers, 2023).

The subject of assay [1] is SK-N-BE(2)-C cells. Briefly: Alamar Blue cell viability assay, SK-N-BE(2)-C. In kind it is cell-based. Particulars: Homo sapiens, MYCN amplified neuroblastoma cell line. From the text: (§1) The MYCN amplified neuroblastoma cell line SK-N-BE(2)-C was kindly provided by Professor June Biedler (Memorial Sloan Kettering Cancer Centre, New York, NY, USA), and Kelly was obtained from European Collection of Cell Cultures. The two normal lung fibroblast cell lines (MRC-5 and WI-38) were purchased from ATCC. SK-N-BE(2)-C shMYCN#2 doxycycline-inducible cell and Kelly shMYCN#2 doxycycline-inducible cell were custom-made by GenScript (Piscataway, NJ, USA). SK-N-BE(2)-C, SK-N-BE(2)-C shMYCN#2, and SHEP MYCN3 doxycycline-inducible cells were maintained in Dulbecco’s modified Eagle’s medium (DMEM) (Invitrogen, Life Technologies, Waltham, MA, USA) with 10% foetal calf serum (FCS). Kelly and Kelly shMYCN#2 doxycycline-inducible cell were cultured in Roswell Park Memorial Institute (RPMI) 1640 (Invitrogen, Life Technologies) with 10% FCS. MRC-5 and WI-38 were cultured in Alpha-MEM media (Invitrogen, Life Technologies) with 10% FCS. All cells were not cultured for more than 2 months. All used cell lines were authenticated by Cell Bank Australia (Westmead, NSW, Australia) as being free from mycoplasma, and cultured at 37 °C and 5% CO2 in a humidifier incubator.
(§2) Cell viability was determined by the Alamar Blue assay (75 mg resazurin, 12.5 mg methylene blue, 164.5 mg potassium hexacyanoferrate (III), 211 mg potassium hexacyanoferrate (II) trihydrate in 500 mL of phosphate buffered saline). After 6 h incubation with Alamar Blue, the change of fluorescence was measured by Victor 3 multilabel Plate Reader (Perkin Elmer Australia, Melburne, Australia) at an excitation wavelength of 560 nm and an emission wavelength of 590 nm.
(§3) We have shown that the PA2G4 protein increased the half-life of the oncoprotein MYCN through direct binding, and competitive chemical inhibition of this bond by WS6 reduced tumorigenicity both in vitro and in vivo [11]. […] Here, we explored the structure–activity relationship (SAR) of WS6 analogue compounds with the aim to increase efficacy and reduce toxicity. […] The in vitro cytotoxicity of these 14 compounds were measured by cell viability assays using Alamar Blue in MYCN amplified human neuroblastoma (SK-N-BE(2)-C and Kelly) cell lines compared to non-malignant (WI-38, MRC-5) myofibroblast cell lines (Figure 1B,C and Supplementary Figure S1A).

The subject of assay [2] is Kelly cells. As to the kind of experiment: Alamar Blue cell viability assay, Kelly. The format is cell-based. Particulars: Homo sapiens, MYCN amplified neuroblastoma cell line.
Text: as §1, §2, §3
(In general: Alamar Blue is a resazurin reagent that responds to reducing activity.)

Assay [3] deals with MRC-5 cells. As to the kind of experiment: Alamar Blue cell viability assay, MRC-5 non-malignant myofibroblasts. The format is cell-based. Particulars: Homo sapiens, MRC5.
Text: as §1, §2, §3

Assay [4] has as its system WI-38 cells. As to the kind of experiment: Alamar Blue cell viability assay, WI-38 non-malignant myofibroblasts. The format is cell-based. As to conditions: Homo sapiens, read-out: IC50 WI-36.
Text: as §1, §2, §3

The subject of assay [5] is neuroblastoma cells (Kelly, SK-N-BE(2)-C) compared to non-malignant myofibroblasts (WI-38, MRC-5). As to the kind of experiment: Therapeutic window, neuroblastoma cells versus non-malignant myofibroblasts. The format is cell-based, human. As to conditions: non-malignant myofibroblast IC50 versus neuroblastoma cell IC50. As for the experimental part: as §2, §3
For assay [6], the system named is TH-MYCN neuroblastoma mice. Also on record: method as in PMID 31501192. Particulars: cited from earlier work.

Usually IC50 stands for the concentration that gives 50% inhibition.

Each structure is given as a SMILES string.

Take `CN1CCN(Cc2ccc(NC(=O)Cc3ccc(Oc4cc(NC(=O)C5CC5)ncn4)cc3)cc2C(F)(F)F)CC1` [WS6, reference compound]: the half-inhibitory concentration (IC50) in assay [1] was determined as 750 nM; in assay [2] it was 650 nM; in assay [3], 1400 nM; in assay [4], 1500 nM. Besides, the “Therapeutic window (fold difference)” value in assay [5] was 2.1 fold. Moreover, in assay [6], the tumorigenicity entry was “significantly decreased tumorigenicity”.
